Measurements as given in patent publication EP0385680B1, “Heterocyclic ethers as 5-lipoxygenase inhibitors” (ZENECA LIMITED, priority 1989, dated 1990).

Columns and labels:
[1] = molecular target: T1, 5-LO (Homo sapiens, UniProt P09917); test: Test b): in vitro heparinised human blood challenged with calcium ionophore A23187, radioimmunoassay of LTB4; type: cell-based; settings: A23187 challenge, read-out: IC₅₀ against LTB₄
T1 construct: incubating a test compound with heparinised human blood, prior to challenge with the calcium ionophore A23187; endogenous in cells; host or cells: blood cells in heparinised human whole blood
T1 sequence (P09917 1-674): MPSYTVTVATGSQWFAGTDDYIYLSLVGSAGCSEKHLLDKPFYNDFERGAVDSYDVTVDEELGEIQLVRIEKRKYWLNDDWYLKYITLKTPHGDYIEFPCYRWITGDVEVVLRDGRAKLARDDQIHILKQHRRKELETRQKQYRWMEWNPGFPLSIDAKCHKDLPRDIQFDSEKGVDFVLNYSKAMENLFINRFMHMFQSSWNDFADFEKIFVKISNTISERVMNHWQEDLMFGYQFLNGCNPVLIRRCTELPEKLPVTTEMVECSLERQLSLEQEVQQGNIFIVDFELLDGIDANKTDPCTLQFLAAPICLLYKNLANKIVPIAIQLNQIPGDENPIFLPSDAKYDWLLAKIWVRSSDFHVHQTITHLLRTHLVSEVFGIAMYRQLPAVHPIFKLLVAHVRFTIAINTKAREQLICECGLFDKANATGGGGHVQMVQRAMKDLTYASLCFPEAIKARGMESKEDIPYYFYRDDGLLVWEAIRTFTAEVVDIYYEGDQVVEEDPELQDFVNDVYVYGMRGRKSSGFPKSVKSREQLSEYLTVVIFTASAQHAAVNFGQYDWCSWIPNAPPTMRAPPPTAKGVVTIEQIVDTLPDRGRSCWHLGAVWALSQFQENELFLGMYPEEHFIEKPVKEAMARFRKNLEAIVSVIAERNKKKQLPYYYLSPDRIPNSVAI
Protocol: (§1) As stated previously, the heterocyclic ethers of the formula I are inhibitors of the enzyme 5-LO. […] This test provides a measure of the intrinsic inhibitory properties against soluble 5-LO in an extracellular environment. • b) An in vitro assay system involving incubating a test compound with heparinised human blood, prior to challenge with the calcium ionophore A23187 and then indirectly measuring the inhibitory effects on 5-LO by assaying the amount of LTB₄ using the specific radioimmunoassay described by Carey and Forder (F. Carey and R.A. Forder, Brit. […] The effects of a test compound on the enzyme cyclooxygenase (which is involved in the alternative metabolic pathway for arachidonic acid and gives rise to prostaglandins, thromboxanes and related metabolites) may be measured at the same time using the specific radioimmunoassay for thromboxane B₂(TxB₂) described by Carey and Forder (see above). […] It permits the selectivity of the inhibitory effect on 5-LO or cyclooxygenase to be assessed. • c) An ex vivo assay system, which is a variation of test b) above, involving administration of a test compound (usually orally as the suspension produced when a solution of the test compound in dimethylsulphoxide is added to carboxymethylcellulose), blood collection, heparinisation, challenge with A23187 and radioimmunoassay of LTB₄ and TxB₂. […]

[2] = molecular target: T2, cyclooxygenase (Homo sapiens, UniProt P23219); test: Test b): in vitro heparinised human blood challenged with calcium ionophore A23187, radioimmunoassay of TxB2; type: cell-based; settings: A23187 challenge, read-out: IC₅₀ against TxB₂
T2 construct: against 5-LO and also cyclooxygenase in the presence of blood cells and proteins; endogenous in cells; host or cells: blood cells in heparinised human whole blood
Protocol: as §1

T2 sequence (P23219 24-599): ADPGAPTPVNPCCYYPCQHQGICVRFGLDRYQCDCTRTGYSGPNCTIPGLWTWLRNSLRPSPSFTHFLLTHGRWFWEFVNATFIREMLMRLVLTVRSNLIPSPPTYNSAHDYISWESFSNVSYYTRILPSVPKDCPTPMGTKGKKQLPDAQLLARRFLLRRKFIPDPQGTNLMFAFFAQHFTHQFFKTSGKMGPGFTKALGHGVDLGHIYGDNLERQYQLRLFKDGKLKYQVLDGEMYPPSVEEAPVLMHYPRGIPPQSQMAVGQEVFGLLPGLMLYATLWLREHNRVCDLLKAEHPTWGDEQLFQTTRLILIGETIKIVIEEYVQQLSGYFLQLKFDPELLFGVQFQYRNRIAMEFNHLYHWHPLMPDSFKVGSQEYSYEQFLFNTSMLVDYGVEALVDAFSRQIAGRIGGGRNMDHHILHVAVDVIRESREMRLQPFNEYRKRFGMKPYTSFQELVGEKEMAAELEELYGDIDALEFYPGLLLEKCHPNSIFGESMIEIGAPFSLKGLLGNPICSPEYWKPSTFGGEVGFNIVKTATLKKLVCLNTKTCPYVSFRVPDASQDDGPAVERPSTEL

IC50 [1] [µM]	IC50 [2] [µM]	SMILES
1	> 40	CCC(COC)(OC)c1cccc(OCC#Cc2ccccn2)c1 (stereo not drawn) [2-methoxy-2-[3-(3-(2-pyridyl)prop-2-yn-1-yloxy)phenyl]but-1-yl methyl ether]
0.1	–	C=CCOCC(CC)(OCC=C)c1cc(F)cc(OCc2ccc3c(ccc(=O)n3C)c2)c1 (stereo not drawn) [2-allyloxy-2-[5-fluoro-3-(1,2-dihydro-1-methyl-2-oxoquinolin-6-ylmethoxy)phenyl]but-1-yl allyl ether]
